According to publication PMC8881610 (Nature Communications, 2022):
Residue numbers refer to the chain shown, from its start.

Key:
Test in all cases: Whole-cell binding assay, competition with 125I-GIP1-42
Set-up in all cases: acylated tirzepatide to the full-length or modified; Flag; expressed in transfected cells
GIPR [1] = target: T1, GIPR (Homo sapiens, UniProt P48546, R196A); conditions: GIPR R196A, CHO-K1
T1 sequence (P48546 22-466 R196A): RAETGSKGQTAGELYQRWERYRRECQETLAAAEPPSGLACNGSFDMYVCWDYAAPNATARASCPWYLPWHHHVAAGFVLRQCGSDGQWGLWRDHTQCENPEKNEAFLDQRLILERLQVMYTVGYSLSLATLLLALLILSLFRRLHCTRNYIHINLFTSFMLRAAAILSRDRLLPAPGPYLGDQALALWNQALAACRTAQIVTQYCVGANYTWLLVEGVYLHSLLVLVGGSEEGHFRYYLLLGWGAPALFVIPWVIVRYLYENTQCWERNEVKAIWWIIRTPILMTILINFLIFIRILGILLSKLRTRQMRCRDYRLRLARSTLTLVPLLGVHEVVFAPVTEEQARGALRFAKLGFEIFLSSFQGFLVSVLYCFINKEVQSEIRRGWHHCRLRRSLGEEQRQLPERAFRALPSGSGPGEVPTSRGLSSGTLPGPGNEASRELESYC
Outline: (§1)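 Transiently transfected CHO-K1 cells expressing WT or mutant GIPR were washed in F-12 with 0.1% BSA or 0.1% casein and 33 mM HEPES, then incubated 2 h at 37 °C. After ice-cold PBS washes, cells were lysed and bound radioactivity counted (CPM).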

GIPR [2] = target: T2, GIPR (Homo sapiens, UniProt P48546, D191A/Q138A/R196A); conditions: GIPR Q138A/D191A/R196A, CHO-K1
T2 sequence (P48546 22-466 Q138A/D191A/R196A): T1 sequence (P48546 22-466 R196A) with Q117A, D170A
Outline: as §1

GIPR [3] = target: T3, GIPR (Homo sapiens, UniProt P48546, Q30A); conditions: GIPR Q30A, CHO-K1
T3 sequence (P48546 22-466 Q30A): T1 sequence (P48546 22-466 R196A) with Q9A, A175R
Outline: as §1

[4] = read-out: binding pIC50 (converted)

**Q.** What does the source list for CCCCCCCCCCCCCCCC(=O)N[C@@H](CCC(=O)NCCCC[C@H](NC(=O)[C@H](CC(=O)O)NC(=O)[C@H](CO)NC(=O)[C@@H](NC(=O)[C@H](Cc1ccccc1)NC(=O)[C@@H](NC(=O)CNC(=O)[C@H](CCC(N)=O)NC(=O)C(C)(C)NC(=O)[C@@H](N)Cc1c[nH]cn1)[C@@H](C)O)[C@@H](C)O)C(=O)N[C@@H](CO)C(=O)N[C@@H](CCCCN)C(=O)N[C@@H](Cc1ccc(O)cc1)C(=O)N[C@@H](CC(C)C)C(=O)N[C@@H](CC(=O)O)C(=O)N[C@@H](CCC(=O)O)C(=O)N[C@@H](CCCNC(=N)N)C(=O)N[C@@H](C)C(=O)N[C@@H](C)C(=O)N[C@@H](CCC(N)=O)C(=O)N[C@@H](CC(=O)O)C(=O)N[C@@H](Cc1ccccc1)C(=O)N[C@H](C(=O)N[C@@H](CCC(N)=O)C(=O)N[C@@H](Cc1c[nH]c2ccccc12)C(=O)N[C@@H](CC(C)C)C(=O)N[C@@H](CC(C)C)C(=O)N[C@@H](CC(=O)O)C(=O)NCC(=O)NCC(=O)N1CCC[C@H]1C(=O)N[C@@H](CO)C(=O)N[C@@H](CO)C(=O)NCC(=O)N[C@@H](C)C(=O)N1CCC[C@H]1C(=O)N1CCC[C@H]1C(=O)N1CCC[C@H]1C(=O)N[C@@H](CO)C(N)=O)C(C)C)C(=O)O [Peptide 20]?
**A.** binding Span (GIPR [1]): 71.10 ± 3.42 % WT; IC50 (GIPR [1]; [4]): 14.5 nM; binding Span (GIPR [2]): 1.03 ± 0.94 % WT; IC50 (GIPR [2]; [4]): 2.4 nM; binding Span (GIPR [3]): 92.75 ± 4.50 % WT; IC50 (GIPR [3]; [4]): 17 nM
